What was measured:
DDR1 [1] = target: T1, DDR1 (Homo sapiens, UniProt Q08345); assay: Competition inhibition experiments (DDR1 Western blot); assay type: cell-based; design: endogenous in cells; host or cells: unnamed tumor cells; conditions: TPD12140 100 nM plus different concentrations of competitor, 24 h
Protocol: Tumor cells were taken and inoculated into 6-well plates with 1×3×10^5 cells per well, and the cell growth status was observed on the next day. When the cells reached 80% confluence, TPD12140 (working concentration 100 nM) and different concentrations of cabozantinib or lenalidomide were added to the cell culture medium of the experimental group, and the control group was added with an equal volume of DMSO, and the incubation was continued for 24 h. Western Blot was performed to detect the expression of DDR1 protein (the same operation as above). The experiments were repeated three times or more, and the experimental data were statistically analyzed using GraphPad Prism software.

DDR1 [2] = target: T1, DDR1; assay: Experiments with inhibitors of the ubiquitin-proteasome system (DDR1 Western blot); assay type: cell-based; design: endogenous in cells; host or cells: unnamed tumor cells; conditions: MG132 10 uM or MLN4924 1 uM for 6 hours, then TPD12140 100 nM 18 h
Protocol: Tumor cells were inoculated into 6-well plates with 1-3×10^5 cells per well, and the cell growth status was observed the next day. When the cells grew to about 80% confluence, the proteasome inhibitor MG132 (working concentration 10 uM) or the protein ubiquitination inhibitor MLN4924 (working concentration 1 uM) was added to the cell culture medium of the experimental group, and an equal volume of DMSO was added to the control group, and the incubation was continued for 6 hours. The medium in the well plates was discarded, washed twice with PBS, fresh medium was added, and compound TPD12140 (working concentration 100 nM) or an equal volume of DMSO was added to each group of cells, and the incubation was continued for 18 h. Western Blot was performed to detect the expression of DDR1 protein (same operation as above). The experiments were repeated three times or more, and the experimental data were statistically analyzed using GraphPad Prism software.

T1 sequence (Q08345 19-913): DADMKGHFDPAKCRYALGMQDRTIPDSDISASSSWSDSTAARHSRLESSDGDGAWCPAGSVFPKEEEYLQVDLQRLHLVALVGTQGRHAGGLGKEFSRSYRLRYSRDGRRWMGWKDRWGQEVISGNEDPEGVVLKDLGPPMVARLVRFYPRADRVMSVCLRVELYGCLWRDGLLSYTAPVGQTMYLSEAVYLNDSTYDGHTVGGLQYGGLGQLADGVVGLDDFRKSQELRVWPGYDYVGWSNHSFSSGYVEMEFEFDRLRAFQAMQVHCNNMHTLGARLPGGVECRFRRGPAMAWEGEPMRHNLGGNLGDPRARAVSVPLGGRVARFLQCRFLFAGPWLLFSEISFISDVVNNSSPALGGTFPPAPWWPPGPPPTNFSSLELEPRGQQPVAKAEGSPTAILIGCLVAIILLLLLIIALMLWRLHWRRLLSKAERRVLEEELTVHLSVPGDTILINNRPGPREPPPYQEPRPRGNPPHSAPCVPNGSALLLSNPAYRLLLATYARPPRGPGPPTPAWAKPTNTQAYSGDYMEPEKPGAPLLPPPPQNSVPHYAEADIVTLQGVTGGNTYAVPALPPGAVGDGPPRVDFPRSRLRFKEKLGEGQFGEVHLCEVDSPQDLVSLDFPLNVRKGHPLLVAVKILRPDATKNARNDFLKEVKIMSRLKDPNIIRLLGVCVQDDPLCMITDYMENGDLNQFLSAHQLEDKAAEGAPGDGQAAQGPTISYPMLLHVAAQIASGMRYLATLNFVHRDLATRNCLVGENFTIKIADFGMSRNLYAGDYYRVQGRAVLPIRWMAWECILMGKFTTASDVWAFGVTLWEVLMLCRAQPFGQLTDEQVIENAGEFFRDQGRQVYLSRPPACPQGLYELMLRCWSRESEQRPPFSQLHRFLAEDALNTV

SMILES	effect of competitor on degradation of DDR1 by TPD12140 (DDR1 [1])	effect of inhibitor on degradation of DDR1 by TPD12140 (DDR1 [2])
Nc1cccc2c1CN(C1CCC(=O)NC1=O)C2=O (centres unmarked) [lenalidomide]	inhibits the degradation of DDR1 by the compound	
NS(=O)(=O)OC[C@@H]1C[C@@H](n2ccc3c(N[C@H]4CCc5ccccc54)ncnc32)C[C@@H]1O [MLN4924]		can inhibit the degradation of the compounds
